Source: patent US20110212853A1, “NOVEL DIAGNOSTIC METHOD” (PROBIODRUG AG, priority 2010, published 2011)

Columns and labels:
A549 cells = assay: hMCP-1 N1pE/hMCP-1 ratio by ELISA in TNFα+IL1β stimulated A549 treated with QCI; format: cell-based, human; conditions: 24 h, different QCI concentrations
Method: To capture human MCP-1, commercially available polyclonal antiserum goat anti-hMCP1-AF (R&D Systems, Minneapolis, USA) as capture antibody which specifically binds human MCP-1 was diluted in PBS to 250 ng/ml and immobilized in polystyrene 96-well microtitre plates overnight at 4° C. Thereafter, blocking occurred for 2 hours at room temperature with ELISA Blocker (Thermo Fisher Scientific, Waltham, USA). For preparation of the standard curve recombinant hMCP-1 was incubated with recombinant human Glutaminyl Cyclase (QC) in order to obtain hMCP-1 N1pE. The recombinant hMCP-1 N1pE standard peptide was serially diluted with ELISA Blocker from 1000 pg/ml down to 15.63 pg/ml and added to the wells in duplicate. Two wells filled with ELISA Blocker represent the standard curve value 0 pg/ml. After an incubation period of 2 hours at room temperature, plates were washed at least three times with TBS-T. For detection of hMCP-1 N1pE, the MCP-1 N1pE antibody clone 348-2C9 together with HRP-conjugated anti mouse antibody were both diluted in blocking buffer to final concentrations of 500 ng/ml. For detection of hMCP-1, the antibody mouse anti hMCP-1 (Peprotech, Hamburg, Germany) together with HRP-conjugated anti mouse antibody were also both diluted in blocking buffer to final concentrations of 500 ng/ml. The detection antibody/conjugate solutions were incubated for 2 hours at room temperature. Following several washes with TBS-T a colour reaction with commercially available HRP substrate TMB (SureBlue Reserve TMB Microwell Peroxidase Substrate (1-component), KPL, Gaithersburg, USA) was performed (30 minutes incubation at room temperature in the dark) and subsequently stopped by the addition of 1,2N H2SO4. Absorption at 450/540 nm was determined by a Tecan Sunrise plate reader.
A549 cells were stimulated for 24 h with 10 ng/ml TNFα and IL1β. Furthermore, QCI was applied in different concentrations to the cells. After 24 h cell culture supernatants were analyzed according to the protocol in Example 7.

recombinant human QC = recombinant human QC (Homo sapiens, UniProt Q16769); assay: Chemotactic potency of human MCP-1 in absence or presence of a QC-inhibitor (QC-mediated pGlu formation, then DP4 cleavage); format: biochemical; conditions: 10 μM inhibitor, FIG. 12
Method: Recombinant human MCP-1(1-76) (SEQ ID NO: 1) starting with an N-terminal glutamine (Peprotech) was dissolved in 25 mM Tris/HCl pH 7.6 in a concentration of 10 μg/ml. The MCP-1 solution was either pre-incubated with recombinant human QC (0.0006 mg/ml) for 3 h at 30° C. and subsequently incubated with recombinant human DP4 (0.0012 mg/ml) at 30° C. or incubated with DP4 without prior QC application. In addition, the incubation of Gln^1-MCP-1 with recombinant human QC was carried out in the presence of 10 μM of 1-(3-(1H-imidazol-1-yl)propyl)-3-(3,4-dimethoxyphenyl)thiourea hydrochloride. Resulting DP4 cleavage products were analyzed using Maldi-TOF mass spectrometry after 0 min, 15 min, 30 min, 1 h, 2 h and 4 h.
The chemotaxis assay was performed using 24 well TransWell plates with a pore size of 5 μm (Corning). THP-1 cells were suspended in RPMI1640 in a concentration of 1*10^6 cells/100 μl and applied in 100 μl aliquots to the upper chamber. Cells were allowed to migrate towards the chemoattractant for 2 h at 37° C. […] Afterwards, cells migrated to the lower chamber were counted using a cell counter system (Schärfe System). The chemotactic index was calculated by dividing cells migrated to the stimulus from cells migrated to the negative control. […]

RAW 264.7 cells = assay: mMCP-1 N1pE/mMCP-1 ratio by ELISA in LPS stimulated RAW 264.7 treated with QCI; format: cell-based, mouse; conditions: RAW 264.7, 10 ng/ml LPS, 24 h, different QCI concentrations
Method: To capture mouse MCP-1, commercially available polyclonal antiserum rabbit anti mJE (Peprotech, Hamburg, Germany) as capture antibody which specifically binds mouse MCP-1 was diluted in PBS to 500 ng/ml and immobilized in polystyrene 96-well microtitre plates over 4-7 nights at 4° C. Thereafter, blocking occurred for 2 hours at room temperature with ELISA Blocker (Thermo Fisher Scientific, Waltham, USA). For preparation of the standard curve recombinant mMCP-1 was incubated with mouse Glutaminyl Cyclase (QC) in order to obtain mMCP-1 N1pE. The recombinant mMCP-1 N1pE standard peptide was serially diluted with ELISA Blocker from 1950 pg/ml down to 19.5 pg/ml and added to the wells in duplicate. Two wells filled with ELISA Blocker represent the standard curve value 0 pg/ml. After an incubation period of 2 hours at room temperature, plates were washed at least three times with TBS-T. For detection of mMCP-1 N1pE, the MCP-1 N1pE antibody clone 348-2C9 together with HRP-conjugated anti mouse antibody were both diluted in ELISA Blocker to final concentrations of 500 ng/ml. […] Absorption at 450/540 nm was determined by a Tecan Sunrise plate reader.
In order to analyse the effect of QCI on the ratio of mouse MCP-1 N1pE/mouse MCP-1, the mouse macrophage cell line RAW 264.7 was stimulated with LPS in the absence or presence of increasing concentrations of the QC inhibitor QCI. […] After 24 h cell culture supernatants were analyzed according to the protocol in Example 9. […]

recombinant human QC, sequence (Q16769 29-361): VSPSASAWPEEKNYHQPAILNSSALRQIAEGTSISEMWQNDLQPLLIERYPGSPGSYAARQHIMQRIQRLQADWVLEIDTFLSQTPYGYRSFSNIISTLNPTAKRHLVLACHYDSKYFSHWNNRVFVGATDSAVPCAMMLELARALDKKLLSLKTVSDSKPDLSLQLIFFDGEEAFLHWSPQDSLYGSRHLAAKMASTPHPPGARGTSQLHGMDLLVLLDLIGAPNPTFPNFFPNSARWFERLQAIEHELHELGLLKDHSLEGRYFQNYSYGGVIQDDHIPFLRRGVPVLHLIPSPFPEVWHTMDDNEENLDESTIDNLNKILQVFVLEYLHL

## COc1ccc(NC(=S)NCCCn2ccnc2)cc1OC.Cl [QCI, 1-(3-(1H-imidazol-1-yl)propyl)-3-(3,4-dimethoxyphenyl)thiourea hydrochloride]
A549 cells
  amount of hMCP-1 N1pE: reduced by QCI in a concentration dependent manner
  amount of total hMCP-1: nearly unaffected
  ratio of hMCP-1 N1pE/hMCP-1: decreases with increasing inhibitor concentrations
Recombinant human QC
  pGlu-formation of Gln^1-MCP-1 by QC: prevents pGlu-formation
RAW 264.7 cells
  amount of mMCP-1 N1pE: reduced by QCI in a concentration dependent manner
  amount of total mMCP-1: remains unaffected
  ratio of mMCP-1 N1pE/mMCP-1: decreases with increasing inhibitor concentrations
